Reference: ChEMBL document CHEMBL1143504, “Structure-based design of derivatives of tyropeptin A as the potent and selective inhibitors of mammalian 20S proteasome” (Bioorg Med Chem Lett, 2005)
Where a SMILES comes first, the peptide text is derived from it. [ ]: non-standard residue; d: D form. The star is where a group is joined. ξ: configuration not given here. ξY = NC(Cc1ccc(O)cc1)C(=O)O; Isovaleryl = CC(C)CC(=O)*; Hexanoyl = CCCCCC(=O)*; PhAc = O=C(Cc1ccccc1)*

Assays:
Type in all cases: functional, subcellular
[1] = biological target: 20S proteasome; test: Inhibitory concentration to inhibit trypsin-like activity of 20S proteasome from human leukemia HL-60 cells was determined
[2] = biological target: 20S proteasome; test: Inhibitory concentration to inhibit the PGPH activity of 20S proteasome prepared from human leukemia HL-60 cells was determined
[3] = biological target: 20S proteasome; test: Inhibitory concentration to inhibit chymotrypsin-like activity of 20S proteasome prepared from human leukemia HL-60 cells was determined

| IC50 [1] [µM] | IC50 [2] [µM] | IC50 [3] [nM] | Compound |
| --- | --- | --- | --- |
| 7.8 | > 100 | 1200 | COc1ccc(C[C@@H](C=O)NC(=O)[C@@H](NC(=O)[C@H](Cc2ccc(OC)cc2)NC(=O)CN(C)C)C(C)C)cc1 |
| 6 | 38 | 18 | COc1ccc(CC(C=O)NC(=O)[C@@H](NC(=O)[C@H](Cc2ccc(O)cc2)NC(=O)Cc2cccc3ccccc23)C(C)C)cc1 (stereo partly specified) |
| > 100 | > 100 | 27 | COc1ccc(CC(C=O)NC(=O)[C@@H](NC(=O)[C@H](Cc2ccc(OC)cc2)NC(=O)Cc2cccc3ccccc23)C(C)C)cc1 (stereo partly specified) |
| 6 | 31 | 20 | COc1ccc(C[C@H](NC(=O)Cc2cccc3ccccc23)C(=O)N[C@H](C(=O)NC(C=O)Cc2ccc(O)cc2)C(C)C)cc1 (stereo partly specified) |
| 2 | 20 | 37 | CCCCCC(=O)N[C@@H](Cc1ccc(O)cc1)C(=O)N[C@H](C(=O)NC(C=O)Cc1ccc(O)cc1)C(C)C (stereo partly drawn) (Hexanoyl-Tyr-Val-[ξY]-aldehyde) |
| 37 | 56 | 120 | COc1ccc(CC(C=O)NC(=O)[C@@H](NC(=O)[C@H](Cc2ccc(OC)cc2)NC(=O)CC(C)C)C(C)C)cc1 (stereo partly specified) (Isovaleryl-Tyr(Me)-Val-[ξY](Me)-aldehyde) |
| 5 | 68 | 140 | CC(C)CC(=O)N[C@@H](Cc1ccc(O)cc1)C(=O)N[C@H](C(=O)NC(C=O)Cc1ccc(O)cc1)C(C)C (stereo partly drawn) [TYROPEPTIN A] (Isovaleryl-Tyr-Val-[ξY]-aldehyde) |

Second part, the compound before the results:

| Compound | IC50 [1] [µM] | IC50 [2] [µM] | IC50 [3] [nM] |
| --- | --- | --- | --- |
| CC(C)[C@H](NC(=O)[C@H](Cc1ccc(O)cc1)NC(=O)Cc1ccc2ccccc2c1)C(=O)NC(C=O)Cc1ccc(O)cc1 (stereo partly specified) | 0.7 | 4.7 | 14 |
| CC(C)[C@H](NC(=O)[C@H](Cc1ccc(O)cc1)NC(=O)Cc1cccc2ccccc12)C(=O)NC(C=O)Cc1ccc(O)cc1 (stereo partly specified) | 1.2 | 4.9 | 7 |
| CC(C)[C@H](NC(=O)[C@H](Cc1ccc(O)cc1)NC(=O)CC1CCCCC1)C(=O)NC(C=O)Cc1ccc(O)cc1 (stereo partly specified) | 3 | 17 | 330 |
| COc1ccc(CC(C=O)NC(=O)[C@@H](NC(=O)[C@H](Cc2ccc(O)cc2)NC(=O)CC(C)C)C(C)C)cc1 (stereo partly drawn) (Isovaleryl-Tyr-Val-[ξY](Me)-aldehyde) | 21 | 21 | 190 |
| CC(C)[C@H](NC(=O)[C@H](Cc1ccc(O)cc1)NC(=O)Cc1ccccc1)C(=O)NC(C=O)Cc1ccc(O)cc1 (stereo partly drawn) (PhAc-Tyr-Val-[ξY]-aldehyde) | 2 | 16 | 27 |
